Measurements taken from patent US20050112573A1, “Method of detecting toxic substance” (priority 2001, published 2005).

System: yeast genes (level of expressed mRNA)
Test: DNA chip analysis of expressed mRNA of yeast genes after 2 h culture with a toxic chemical substance
Assay type: cell-based, Saccharomyces cerevisiae S288C
Procedure: Yeast (Saccharomyces cerevtisiae S288C (α SUC2mal mel gap2 CUP1)) were cultured at 25° C. on YPD medium (yeast extract 1%, polypepton 2%, glucose 2%). One of toxic chemical substances was added to the cell at logarithmic growth phase, and the cell was further cultured for two hours. Cell was cultured without any chemical substance in the same condition, and was used as control. Concentrations of the chemical substances were defined to inhibit the growth of the yeast but not lead to death.
After the completion of cultivation, the culture was centrifuged to collect the cells. To the cells, sodium acetate buffer (50 mM sodium acetate, 10 mM EDTA, 1% SDS) was added, and the mixture was shaken at 65° C. for five minutes, followed by returning to room temperature, and obtaining the supernatant, which procedure was repeated two times. To the supernatant, ½ amount of a solution of phenol/chloroform was added, and the mixture was centrifuged to give a supernatant, which was added with an equal amount of chloroform, and the mixture was centrifuged to give a supernatant. To the supernatant, an equal amount of isopropanol containing 0.3 M sodium acetate was added, and the mixture was allowed to stand at room temperature for 30 minutes, after which the mixture was centrifuged to give a sediment of the whole RNAs. Seventy % ethanol was added to the sediment, and the mixture was again centrifuged to give a sediment, which was then dried and dissolved in water. mRNA was isolated from the whole RNAs as followings. In view of the fact that a poly A chain is attached to the 3′ terminus of mRNA, a polynucleotide having a poly T structure which was immobilized on the surface of latex beads was used to trap the mRNA, and then the mRNA was washed and eluted with spine column (Oligotex-dT30<Super>mRNA Purification Kit, Takara). Reverse transcription of the mRNA was conducted with a reverse transcriptase (Super Script II Reverse Transcriptase; catalogue No. 18064-014, GibcoBRL) using fluorescence-labeled nucleotides to give cDNAs that were introduced with Cy3-dUTP or Cy5-dUTP during the reverse transcription.
The labeled cDNAs were dissolved in TE buffer (10 mM Tris-HCl/1 mM EDTA, pH8.0), and the solution was dropped on the DNA chip containing the whole genes of yeast (DNA Chip Research Inc. Japan) so that the cDNAs were hybridized on the DNA chip at 65° C. for over 12 hours. The fluoresces intensity of the DNA chip was read with a scanner, and the ratio relative to the fluorescence intensity resulting from the absence of chemical substance was estimated as the following, which is shown in Tables 1 to 9: [formula]
In the Tables, “Intensity” indicated in the rightmost column is a value of the level of expressed mRNA of each gene in control cells as divided by the average level of the expressions of the whole genes.

Na2As [(1)]
The level of expressed mRNA in the presence of chemical substance/ (yeast gene YKL086W, ratio to control without chemical): 1.0 | The level of expressed mRNA in the presence of chemical substance/The level of expressed mRNA in the absence of chemical substance (yeast gene YKL096W): 1.4 | The level of expressed mRNA in the presence of chemical substance/The level of expressed mRNA in the absence of chemical substance (yeast gene YKL139W): 0.9 | The level of expressed mRNA in the presence of chemical substance/ (yeast gene YKL151C, ratio to control without chemical substance, 2 h culture): 1.2 | The level of expressed mRNA in the presence of chemical substance/ (yeast gene YKL153W, ratio to control without chemical substance, 2 h culture): 1.1 | The level of expressed mRNA in the presence of chemical substance/The level of expressed mRNA in the absence of chemical substance (yeast gene YKL165C): 0.5 | The level of expressed mRNA in the presence of chemical substance/The level of expressed mRNA in the absence of chemical substance (yeast gene YKL193C): 1.3 | The level of expressed mRNA in the presence of chemical substance/ (yeast gene YKL195W, ratio to control without chemical substance, 2 h culture): 0.8 | The level of expressed mRNA in the presence of chemical substance/in the absence of chemical substance (yeast gene YKR009C): 1.0 | The level of expressed mRNA in the presence of chemical substance/The level of expressed mRNA in the absence of chemical substance (yeast gene YKR014C): 1.1 | The level of expressed mRNA in the presence of chemical substance/ (yeast gene YKR091W, ratio to control without chemical): 1.5 | The level of expressed mRNA in the presence of chemical substance/ (yeast gene YLR054C, ratio to control without chemical substance, 2 h culture): 2.0 | The level of expressed mRNA in the presence of chemical substance/The level of expressed mRNA in the absence of chemical substance (yeast gene YLR120C): 1.2 | The level of expressed mRNA in the presence of chemical substance/The level of expressed mRNA in the absence of chemical substance (yeast gene YLR136C): 1.3 | The level of expressed mRNA in the presence of chemical substance/ (yeast gene YLR149C, ratio to control without chemical substance, 2 h culture): 1.4 | The level of expressed mRNA in the presence of chemical substance/ (yeast gene YLR152C, ratio to control without chemical substance, 2 h culture): 0.7 | The level of expressed mRNA in the presence of chemical substance/The level of expressed mRNA in the absence of chemical substance (yeast gene YLR178C): 1.7 | The level of expressed mRNA in the presence of chemical substance/ (yeast gene YLR194C, ratio to control without chemical): 2.1 | The level of expressed mRNA in the presence of chemical substance/The level of expressed mRNA in the absence of chemical substance (yeast gene YLR250W): 1.5 | The level of expressed mRNA in the presence of chemical substance/ (yeast gene YLR324W, ratio to control without chemical substance, 2 h culture): 0.7 | The level of expressed mRNA in the presence of chemical substance/The level of expressed mRNA in the absence of chemical substance (yeast gene YLR327C): 5.5 | The level of expressed mRNA in the presence of chemical substance/ (yeast gene YLR350W, ratio to control without chemical substance, 2 h culture): 1.2 | The level of expressed mRNA in the presence of chemical substance/in the absence of chemical substance (yeast gene YLR351C): 1.0 | The level of expressed mRNA in the presence of chemical substance/The level of expressed mRNA in the absence of chemical substance (yeast gene YLR356W): 1.0 | The level of expressed mRNA in the presence of chemical substance/The level of expressed mRNA in the absence of chemical substance (yeast gene YLR362W): 1.1 | The level of expressed mRNA in the presence of chemical substance/in the absence of chemical substance (yeast gene YLR375W): 0.9 | The level of expressed mRNA in the presence of chemical substance/ (yeast gene YLR387C, ratio to control without chemical substance, 2 h culture): 0.9 | The level of expressed mRNA in the presence of chemical substance/The level of expressed mRNA in the absence of chemical substance (yeast gene YLR429W): 0.7 | The level of expressed mRNA in the presence of chemical substance/ (yeast gene YLR460C, ratio to control without chemical substance, 2 h culture): 2.1 | The level of expressed mRNA in the presence of chemical substance/ (yeast gene YML117W, ratio to control without chemical substance, 2 h culture): 0.9 | The level of expressed mRNA in the presence of chemical substance/The level of expressed mRNA in the absence of chemical substance (yeast gene YMR004W): 0.9 | The level of expressed mRNA in the presence of chemical substance/ (yeast gene YMR009W, ratio to control without chemical substance, 2 h culture): 2.3 | The level of expressed mRNA in the presence of chemical substance/ (yeast gene YMR067C, ratio to control without chemical substance, 2 h culture): 0.9 | The level of expressed mRNA in the presence of chemical substance/ (yeast gene YMR090W, ratio to control without chemical substance, 2 h culture): 6.9 | The level of expressed mRNA in the presence of chemical substance/The level of expressed mRNA in the absence of chemical substance (yeast gene YMR094W): 1.0 | The level of expressed mRNA in the presence of chemical substance/ (yeast gene YMR095C, ratio to control without chemical): 1.1 | The level of expressed mRNA in the presence of chemical substance/ (yeast gene YMR097C, ratio to control without chemical substance, 2 h culture): 1.5 | The level of expressed mRNA in the presence of chemical substance/ (yeast gene YMR102C, ratio to control without chemical substance, 2 h culture): 1.0 | The level of expressed mRNA in the presence of chemical substance/The level of expressed mRNA in the absence of chemical substance (yeast gene YMR104C): 1.9 | The level of expressed mRNA in the presence of chemical substance/ (yeast gene YMR107W, ratio to control without chemical substance, 2 h culture): 5.0 | The level of expressed mRNA in the presence of chemical substance/ (yeast gene YMR180C, ratio to control without chemical substance, 2 h culture): 1.2 | The level of expressed mRNA in the presence of chemical substance/ (yeast gene YMR184W, ratio to control without chemical substance, 2 h culture): 1.3 | The level of expressed mRNA in the presence of chemical substance/ (yeast gene YMR191W, ratio to control without chemical substance, 2 h culture): 1.3 | The level of expressed mRNA in the presence of chemical substance/The level of expressed mRNA in the absence of chemical substance (yeast gene YMR219W): 0.7 | The level of expressed mRNA in the presence of chemical substance/The level of expressed mRNA in the absence of chemical substance (yeast gene YMR226C): 1.1 | The level of expressed mRNA in the presence of chemical substance/in the absence of chemical substance (yeast gene YMR267W): 0.8 | The level of expressed mRNA in the presence of chemical substance/The level of expressed mRNA in the absence of chemical substance (yeast gene YMR275C): 0.7 | The level of expressed mRNA in the presence of chemical substance/The level of expressed mRNA in the absence of chemical substance (yeast gene YMR276W): 0.6 | The level of expressed mRNA in the presence of chemical substance/in the absence of chemical substance (yeast gene YMR278W): 0.7 | The level of expressed mRNA in the presence of chemical substance/in the absence of chemical substance (yeast gene YMR293C): 0.9 | The level of expressed mRNA in the presence of chemical substance/ (yeast gene YMR295C, ratio to control without chemical substance, 2 h culture): 1.7 | The level of expressed mRNA in the presence of chemical substance/ (yeast gene YMR316W, ratio to control without chemical substance, 2 h culture): 3.2 | The level of expressed mRNA in the presence of chemical substance/The level of expressed mRNA in the absence of chemical substance (yeast gene YNL006W): 1.1 | The level of expressed mRNA in the presence of chemical substance/The level of expressed mRNA in the absence of chemical substance (yeast gene YNL007C): 0.7 | The level of expressed mRNA in the presence of chemical substance/ (yeast gene YNL044W, ratio to control without chemical substance, 2 h culture): 1.3
